Assay results reported in patent US6329377A, “Ketomethylene group-containing cysteine and serine protease inhibitors” (Cephalon, Inc., priority 2000, dated 2001).

Assays:
Assay type in all cases: biochemical
[1] = target: T1, thrombin (Homo sapiens, UniProt P00734); experiment: Inhibition of thrombin; conditions: 25 μM Bz-Phe-Val-Arg-AMC; for inhibition at 10 µM: pH 7.5, read-out: Thrombin % I @ 10 uM; for Thrombin % I @ 10 uM: pH 7.5
T1 construct: purchased Sigma Chem. Co. T-7009
Procedure: (§1) To evaluate inhibitory activity, stock solutions (40 times concentrated) of each compound to be tested were prepared in 100% anhydrous DMSO and 5 μL of each inhibitor preparation were aliquoted into each of three wells of a 96-well plate. Calpain I, prepared by a modification of the method of W. J. Lee et al. (Biochem. Internatl. 22: 163-171 (1990)), was diluted into assay buffer (i.e., 50 mM Tris, 50 mM NaCl, 1 mM EDTA, 1 mM EGTA, and 5 mM-mercaptoethanol, pH 7.5 including 0.2 mM Succ-Leu-Tyr-MNA) and 175 μL aliquoted into the same wells containing the independent inhibitor stocks as well as to positive control wells containing 5 μL DMSO, but no compound. To start the reaction, 20 μL of 50 mM CaCl2 in assay buffer was added to all wells of the plate, excepting three, which were used as background signal baseline controls. Substrate hydrolysis was monitored every 5 minutes for a total of 30 minutes using a Fluoroskan II fluorescence plate reader. Substrate hydrolysis in the absence of inhibitor was linear for up to 15 minutes.
(§2) Inhibition of calpain I activity was calculated as the percent decrease in the rate of substrate (S) hydrolysis in the presence of inhibitor (I) relative to the rate in its absence (o). Comparison between the inhibited and control rates was made within the linear range for substrate hydrolysis. For screening, compounds were tested at 10 μM. Compounds having 50% inhibition at 10 μM were considered active. The IC50s of inhibitors (concentration yielding 50% inhibition) were determined from the percent decrease in the rates of substrate hydrolysis in the presence of five to seven different concentrations of the test compound. The results were plotted as % inhibition versus log inhibitor concentration and the IC50 was calculated from linear regression of the data. Apparent second order rate constants were determined from analysis of reaction progress curves under pseudo-first order conditions. Each determination represents the means of three or more independent single cuvette analyses continually monitored via a Perkin-Elmer LS50B spectrofluorimeter. The rate of inhibition of hydrolysis was obtained by fitting the curve to the exponential equation (1):
(§3) Additionally, because α-chymotrypsin is not a calcium sensitive enzyme and is constitutively active, following addition of inhibitor stocks to the 96 well plates, 100 μl of a 2-fold concentrated stock of enzyme in dilution buffer was first added and the reaction started by addition of 100 μl of a 2-fold concentrated stock of substrate in assay buffer. Substrate hydrolysis was monitored every 5 minutes up to 30 minutes using a Fluoroskan II ([…]).
Inhibition of thrombin (Sigma Chem. Co. Cat. #T-7009) was evaluated as described for chymotrypsin except that the assay was performed in 50 mM Tris, 10 mM CaCl2, pH 7.5 and the substrate was 25 μM Bz-Phe-Val-Arg-AMC (Bachem cat#I-1080).

[2] = target: T2, cathepsin L (Homo sapiens, UniProt P07711); experiment: Inhibition of cathepsin L; conditions: Cbz-Phe-Arg-AMC 0.006 mM; for inhibition at 1 µM: pH 6, 1 uM, read-out: Cat L % I @ 1 uM; for Cat L % I @ 1 uM: pH 6.0
T2 construct: purchased Calbiochem 219402

[3] = target: T3, α-chymotrypsin (Bos taurus, UniProt P00766); experiment: Inhibition of α-chymotrypsin; conditions: 0.03 mM Succ-Ala-Ala-Pro-Phe-AMC; for inhibition at 10 µM: pH 7.5, 10 μM, read-out: Chymotrypsin % I @; for Chymotrypsin % I @: 10 μM, pH 7.5
T3 construct: purchased Sigma Chem. Co. C-3142
Procedure: as §1, §2, §3

[4] = target: T4, cathepsin B (Homo sapiens, UniProt P07858); experiment: Inhibition of cathepsin B; conditions: Cbz-Phe-Arg-AMC 0.1 mM; for inhibition at 1 µM: pH 6, 1 uM, read-out: Cat B % I @ 1 uM; for Cat B % I @ 1 uM: pH 6.0
T4 construct: purchased Calbiochem 219364

[5] = target: T5, Calpain I (Homo sapiens, UniProt P07384); experiment: Inhibition of calpain I activity (IC50, fluorescence plate reader); conditions: substrate 0.2 mM Succ-Leu-Tyr-MNA, pH 7.5
T5 construct: made in house
T5 sequence (P07384 1-714): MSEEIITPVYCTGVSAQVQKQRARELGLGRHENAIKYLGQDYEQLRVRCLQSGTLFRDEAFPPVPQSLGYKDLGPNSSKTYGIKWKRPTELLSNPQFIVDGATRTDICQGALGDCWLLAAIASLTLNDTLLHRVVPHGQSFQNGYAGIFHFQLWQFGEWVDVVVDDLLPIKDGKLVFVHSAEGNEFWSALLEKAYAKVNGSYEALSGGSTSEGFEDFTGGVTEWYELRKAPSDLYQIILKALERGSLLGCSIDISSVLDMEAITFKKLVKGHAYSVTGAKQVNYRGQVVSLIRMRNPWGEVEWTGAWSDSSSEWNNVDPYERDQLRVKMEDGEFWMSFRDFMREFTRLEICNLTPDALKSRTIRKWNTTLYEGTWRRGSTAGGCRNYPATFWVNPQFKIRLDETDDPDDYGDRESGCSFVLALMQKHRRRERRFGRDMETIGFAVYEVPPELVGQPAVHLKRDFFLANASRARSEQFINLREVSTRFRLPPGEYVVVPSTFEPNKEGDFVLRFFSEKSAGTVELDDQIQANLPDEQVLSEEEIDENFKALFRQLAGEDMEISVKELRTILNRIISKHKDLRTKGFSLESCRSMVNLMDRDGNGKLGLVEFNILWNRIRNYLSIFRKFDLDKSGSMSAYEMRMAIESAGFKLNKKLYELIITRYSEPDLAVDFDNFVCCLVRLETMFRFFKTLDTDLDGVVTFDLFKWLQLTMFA
T5 sequence (P04632 1-268 partner): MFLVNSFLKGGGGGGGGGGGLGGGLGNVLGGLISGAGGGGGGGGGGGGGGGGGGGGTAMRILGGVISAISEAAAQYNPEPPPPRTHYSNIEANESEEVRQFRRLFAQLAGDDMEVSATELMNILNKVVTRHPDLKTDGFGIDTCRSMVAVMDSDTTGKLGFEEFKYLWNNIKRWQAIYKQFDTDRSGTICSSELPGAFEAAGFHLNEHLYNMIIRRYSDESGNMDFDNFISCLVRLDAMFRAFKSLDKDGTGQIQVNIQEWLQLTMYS
Procedure: as §1
as §2, with “(1): […]” for “(1):”

T2 sequence (P07711 114-288 limits assumed): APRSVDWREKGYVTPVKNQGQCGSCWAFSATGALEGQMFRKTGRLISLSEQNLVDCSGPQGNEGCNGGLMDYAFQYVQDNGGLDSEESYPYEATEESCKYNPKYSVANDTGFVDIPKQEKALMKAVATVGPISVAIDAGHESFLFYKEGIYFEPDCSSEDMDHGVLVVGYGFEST
T2 sequence (P07711 292-333 limits assumed): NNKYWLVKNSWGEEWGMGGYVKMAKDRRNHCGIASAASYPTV

| inhibition at 10 µM [1] | inhibition at 1 µM [2] | inhibition at 10 µM [3] | inhibition at 1 µM [4] | IC50 [5] | Thrombin % I @ 10 uM [1] | Cat L % I @ 1 uM [2] | Chymotrypsin % I @ [3] | Cat B % I @ 1 uM [4] | Structure (SMILES) |
| --- | --- | --- | --- | --- | --- | --- | --- | --- | --- |
| 25% | 100% | 98% | 76% |  |  |  |  |  | CC(C)CC(CC(=O)C1c2ccccc2Oc2ccccc21)C(=O)N[C@H](C=O)CC(C)C (stereo partly drawn) [Compound 16d, Xanthene-COCH2 CH(iBu)CO-Leu-H] |
| 10% | 100% | 7% | 78% | 485 nM |  |  |  |  | CCNC(=O)C(=O)C(CC)NC(=O)C(CC(=O)C1c2ccccc2Oc2ccccc21)CC(C)C (stereo not drawn) [Compound 8d, Xanthene-COCH2 CH(iBu.)CO-Abu-CONHEt] |
| 0% | 81% | 0% | 10% | 8440 nM |  |  |  |  | CCNC(=O)C(=O)C(CC)NC(=O)C(CC(=O)CCCCc1ccccc1)CC(C)C (stereo not drawn) [Compound 8a, Ph(CH2)4 COCH2 CH(iBu)CO-Abu-CONHEt] |
| 13% | 100% | 93% | 98% | 130 nM |  |  |  |  | CCNC(=O)C(=O)C(CC(C)C)NC(=O)C(CC(=O)C1c2ccccc2Oc2ccccc21)CC(C)C (stereo not drawn) [Compound 8f, Xanthene-CO(CH2 CH(iBu)CO-Leu-CONHEt] |
| 0% | 98% | 0% | 84% | 6690 nM |  |  |  |  | CCNC(=O)C(=O)C(CC)NC(=O)C(CC(=O)[C@@H](CC)c1ccccc1)CC(C)C (stereo partly drawn) [Compound 8b, CH3 CH2 CH(Ph)COCH2 CH(iBu)CO-Abu-CONHEt] |
| 0% | 100% | 21% | 99% | 55 nM |  |  |  |  | CCC(C(=O)CC(CC(C)C)C(=O)N[C@H](C=O)CC(C)C)c1ccccc1 (stereo partly drawn) [Compound 16b, CH3 CH2 CH(Ph)COCH2 CH(iBu)CO-Leu-H] |
| 1% | 100% | 62% | 97% | 50 nM |  |  |  |  | CC(C)CC(CC(=O)C(c1ccccc1)c1ccccc1)C(=O)N[C@H](C=O)CC(C)C (stereo partly drawn) [Compound 16c, Ph2 CHCOCH2 CH(iBu)CO-Leu-H] |
| 0% | 100% | 6% | 100% | 1730 nM |  |  |  |  | CCNC(=O)C(=O)C(CC)NC(=O)C(CC(=O)C(c1ccccc1)c1ccccc1)CC(C)C (stereo not drawn) [Compound 8c, Ph2 CHCOCH2 CH(iBu)CO-Abu-CONHEt] |
| 0% | 95% | 0% | 100% | 380 nM |  |  |  |  | CCNC(=O)C(=O)C(CC)NC(=O)C(CC(=O)[C@H](CC(C)C)NC(=O)OCc1ccccc1)CC(C)C (stereo partly drawn) [Compound 8e, Z-Leu-CH2 CH(iBu)CO-Abu-CONHEt] |
| 0% | 100% | 61% | 97% |  |  |  |  |  | CC(C)CC(CC(=O)CCCCc1ccccc1)C(=O)N[C@H](C=O)CC(C)C (stereo partly drawn) [Compound 16a, Ph(CH2)4 COCH2 CH(iBu)CO-Leu-H] |

The remaining lines, values behind:

| Structure (SMILES) | inhibition at 10 µM [1] | inhibition at 1 µM [2] | inhibition at 10 µM [3] | inhibition at 1 µM [4] | IC50 [5] | Thrombin % I @ 10 uM [1] | Cat L % I @ 1 uM [2] | Chymotrypsin % I @ [3] | Cat B % I @ 1 uM [4] |
| --- | --- | --- | --- | --- | --- | --- | --- | --- | --- |
| CC(C)CC(CC(=O)CN(CC(C)C)C(=O)OCc1ccccc1)C(=O)N[C@H](C=O)CC(C)C (stereo partly drawn) [Compound 32, Z-N(iBu)CH2 COCH2 CH(iBu)CON H-Leu-H] |  |  |  |  | 71 nM |  |  |  |  |
| CC(C)CC(CC(=O)N1CCc2ccccc2C1)C(=O)N[C@H](C=O)Cc1ccccc1 (single isomer, unassigned) [Compound 16f-II, 2-THIQ-COCH2 CH(iBu)CO-Phe-H (Diastereomer)] |  |  |  |  | 1000 nM | 0% | 52% | 12% | 71% |
| CC(C)CC(CC(=O)N1CCc2ccccc2C1)C(=O)N[C@H](C=O)Cc1ccccc1 (single isomer, unassigned) [Compound 16f-I, 2-THIQ-COCH2 CH(iBu)Cd-Phe-H] | 0% |  |  |  | 28 nM |  | 96% | 39% | 100% |
| CC(C)CC(CC(=O)N1CCN(c2ccccc2)CC1)C(=O)N[C@H](C=O)CC(C)C (single isomer, unassigned) [Compound 16g-II, Ph-Piperazine-COCH2 CH(iBu)CO-Leu-H] |  |  |  |  | 4500 nM | 0% | 35% | 0% | 67% |
| CC(C)CC(CC(=O)N1CCN(c2ccccc2)CC1)C(=O)N[C@H](C=O)CC(C)C (single isomer, unassigned) [Compound 16g-I, Ph-Piperazine-COCH2 CH(iBu)CO-Leu-H] | 0% |  | 0% |  | 227 nM |  | 97% |  | 100% |
